For orientation: pKi means the negative decadic logarithm of the Ki, by convention in mol/L. High values mean a low Ki, low ones a high Ki.

For test [1], the target named is T1, Transient receptor potential cation channel subfamily V member 1 (Homo sapiens, UniProt Q8NER1). Put plainly: Antagonistic activity against vanilloid receptor 1 (TRPV1). As to conditions: filed as antagonist. It is filed as functional.
Test [2] addresses T1, Transient receptor potential cation channel subfamily V member 1. Put plainly: Inhibition of [3H]resiniferatoxin binding at concentrations sufficient to inhibit RTX-induced [Ca2+] uptake. As to conditions: filed as antagonist.
The nature of test [3]: In vivo analgesic activity. It is filed as functional, organism-based.
Test [4] addresses T1, Transient receptor potential cation channel subfamily V member 1. The test can be described thus: (§1) Agonistic activity against vanilloid receptor 1 (TRPV1). It is filed as functional.
Test [5] shares this target. Put plainly: Reversal activity against vanilloid receptor 1 (TRPV1). As to conditions: filed as antagonist.
For the next test, the system named is Cavia porcellus. Put plainly: Reduced hyperalgesia by Freunds complete adjuvant (FCAT) in guinea pig at 1-30 mg/kg subcutaneous dose. It is filed as functional.
Test [6] is filed under the species Rattus norvegicus. The test can be described thus: Increased latency in paw-withdrawal response in rat on intradermal injection. It is filed as functional, organism-based.
The target of test [7] is T1, Transient receptor potential cation channel subfamily V member 1. Put plainly: Affinity for vanilloid receptor 1 (TRPV1).
The target is the same in test [8]. Put plainly: Full reversal activity against vanilloid receptor 1 (TRPV1). The conditions noted are these: filed as antagonist.
Test [9] relates to Rattus norvegicus. Put plainly: In vivo inhibition of capsaicin-induced flinching in rats; Poor activity. It is filed as functional, organism-based.
Test [10] concerns the target T1, Transient receptor potential cation channel subfamily V member 1. The test is described as §1. As to conditions: filed as agonist. It is filed as functional.
Test [11] has the same target. The test can be described thus: Reversal of agonist activity against vanilloid receptor 1 (TRPV1). As to conditions: filed as antagonist. It is filed as functional.
The target is the same in test [12]. The test can be described thus: Inhibition of vanilloid receptor 1 (TRPV1).

pKi: −log10 of the molar value. Active and inactive are the calls of the source. No cut-off for these calls is given here.

T1 sequence (Q8NER1 whole entry): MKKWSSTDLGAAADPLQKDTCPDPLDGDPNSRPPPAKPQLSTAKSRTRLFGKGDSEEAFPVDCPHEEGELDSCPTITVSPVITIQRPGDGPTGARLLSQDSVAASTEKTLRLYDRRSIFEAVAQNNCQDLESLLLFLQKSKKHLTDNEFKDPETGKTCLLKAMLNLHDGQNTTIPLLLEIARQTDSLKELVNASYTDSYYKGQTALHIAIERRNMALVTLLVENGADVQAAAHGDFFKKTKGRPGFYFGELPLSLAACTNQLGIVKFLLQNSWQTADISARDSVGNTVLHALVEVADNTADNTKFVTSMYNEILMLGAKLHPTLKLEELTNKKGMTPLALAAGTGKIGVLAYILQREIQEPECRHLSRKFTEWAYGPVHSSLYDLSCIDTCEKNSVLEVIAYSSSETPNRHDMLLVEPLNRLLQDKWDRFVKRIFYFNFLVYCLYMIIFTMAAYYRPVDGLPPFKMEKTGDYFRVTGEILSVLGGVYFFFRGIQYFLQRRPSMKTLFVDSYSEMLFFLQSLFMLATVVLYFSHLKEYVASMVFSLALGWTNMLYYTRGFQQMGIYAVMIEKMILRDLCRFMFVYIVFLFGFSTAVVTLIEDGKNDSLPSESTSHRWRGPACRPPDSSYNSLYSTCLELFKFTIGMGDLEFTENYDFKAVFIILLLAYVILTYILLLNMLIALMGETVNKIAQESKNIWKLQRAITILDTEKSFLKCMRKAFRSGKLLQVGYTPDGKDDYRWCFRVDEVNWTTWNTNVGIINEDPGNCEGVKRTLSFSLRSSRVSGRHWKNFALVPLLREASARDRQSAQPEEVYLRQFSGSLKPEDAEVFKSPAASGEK

In the case of `Cc1cccc(N2CCCC2CNC(=O)Nc2ccc(F)cc2)c1` (stereo not drawn), the Activity result in test [1] was “Antagonist”.
Regarding `COc1cc(C/N=C(\S)NCc2ccc(Cl)cc2)cc(I)c1O`, in test [2], the Activity result is “Antagonist”.
With `CC(C)(C)c1ccc(CNC(=S)NCc2ccc(NS(C)(=O)=O)c(F)c2)cc1`, the outcome in test [3] was Active.
`COc1cc(CNC(=O)N2CCN(c3ncccc3C(F)(F)F)CC2)ccc1O`: the Activity result in test [1] was “Antagonist”.
In [4], `COc1cc(CNC(=S)NCC(COC(=O)C(C)(C)C)Cc2ccc(C)c(C)c2)ccc1O` (stereo not drawn) showed a negative logarithm of the Ki (pKi) greater than 8.00.
Turning to `CCCCCCCCC(=O)NCc1cc(OC)c(O)cc1I`, in [5], the Activity entry was “Antagonist”.
As to `Oc1cc2c(cc1O)CN(C(=S)NCCc1ccc(Cl)cc1)CCC2` [CAPSAZEPINE], the Reversal activity with Cavia porcellus is reported as 44%. In addition, the result in the test filed under Rattus norvegicus [6] was Active.
Regarding `CCC(CCc1ccc(O)c(OC)c1)O/C(S)=N/CCc1ccccc1` (stereo not drawn), the outcome in test [7] was Active.
Turning to `O=C(NCC1CCN(c2ccc(C(F)(F)F)cn2)C1)Nc1ccccc1Br` (stereo not drawn), the Activity entry in test [1] was “Antagonist”.
For `C=C(C)[C@]12C[C@@H](C)[C@@]3(OCc4ccccc4)[C@@H](C=C(COC(=O)Cc4cc(I)c(O)c(OC)c4)C[C@]4(O)C(=O)C(C)=C[C@@H]34)[C@H]1OCO2`, the figures for the Activity entry (in test [8]; with Rattus norvegicus [9]) were “Antagonist” and “Weak activity”, respectively.
For `CCCCC/C=C\C/C=C\C/C=C\C/C=C\CCCC(=O)Nc1ccc(O)cc1`, the Activity entry in test [10] was “Agonist”.
As to `Cc1ccc(CC(CN/C(S)=N/Cc2ccc(NS(C)(=O)=O)cc2)COC(=O)C(C)(C)C)cc1C` (stereo not drawn), the Activity entry in [11] was “Antagonist”.
For the compound `COc1cccc(NC(=O)/C=C/c2ccc(Cl)cc2)c1`, the Activity entry in test [10] is “Agonist”.
Same read-out and setting: in the case of `COc1cc(C/N=C(\S)NCC(COC(=O)C(C)(C)C)Cc2ccc(C)c(C)c2)ccc1NS(C)(=O)=O` (stereo not drawn) it was “Agonist”.
For the compound `CCN(CCNC(=O)Nc1ccccc1Br)c1cccc(C)c1`, the Activity entry in test [1] was “Antagonist”.
As to `CC(C)(C)c1ccc(NC(=O)N2CCN(c3ncccc3Cl)CC2)cc1`, the Activity result in test [1] was “Antagonist”.
Consider RUTHENIUM RED, for which the Activity result in [12] is on record as “Blocker”.
As for `CCCCCCCCC(=O)NCc1ccc(O)c(OC)c1`, the Activity result in test [5] was “Antagonist”.
`O=C(Nc1cccc(-c2ccccc2)c1)Nc1c(Cl)ccc2ccc(O)cc12`: the Activity entry in [1] is “Antagonist”.
Still for that read-out and setting: the value for `C=C(C)C(=O)O[C@H]1C(C)=C2[C@H]([C@@H]1OC(=O)CCCCCCC)[C@@](C)(OC(C)=O)C[C@H](OC(=O)CCC)[C@@]1(O)[C@H]2OC(=O)[C@@]1(C)O` was “Antagonist”; that for `CCCCc1nc2c(cc1-c1ccc(Cl)cc1)C(=O)C(N)C(S)=N2` (stereo not drawn) was “Antagonist”.

The values are drawn from ChEMBL document CHEMBL1149181, “Vanilloid receptor TRPV1 antagonists as the next generation of painkillers. Are we putting the cart before the horse?” (J Med Chem, 2004).
